Results reported in the supplement of paper PMC6335503.
± gives the standard deviation of the averaged measurements.

Key:
Assay in all cases: cell viability, percent of DMSO control (CellTiter-Glo); higher = more viable cells
Settings in all cases: 72 h
[1] = test system: DFTD cell line T3 (06/0368)
Protocol: (§1)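 Eight-point dose titration of 41 screen hits in triplicate wells on four Tasmanian devil DFTD tumour cell lines (T1-T4) and devil fibroblasts, 384-well plates. Viability was read by CellTiter-Glo (ATP) after 72 h at 37 °C. Percent of control per plate: DMSO wells = 100%, positive-control wells = 0%.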

[2] = test system: DFTD cell line T1 (06/2887)
Protocol: as §1

[3] = test system: DFTD cell line T2 (05/2569)
Protocol: as §1

[4] = test system: DFTD cell line T4 (07/0192)
Protocol: as §1

| SMILES | cell viability ([1]; 0.00617 µM) [%] | cell viability ([1]; 0.0185 µM) [%] | cell viability ([1]; 0.0556 µM) [%] | cell viability ([1]; 0.166667 µM) [%] | cell viability ([1]; 0.5 µM) [%] | cell viability ([1]; 1.5 µM) [%] | cell viability ([1]; 4.5 µM) [%] | cell viability ([1]; 13.5 µM) [%] | cell viability ([2]; 0.00617 µM) [%] | cell viability ([2]; 0.0185 µM) [%] | cell viability ([2]; 0.0556 µM) [%] | cell viability ([2]; 0.166667 µM) [%] | cell viability ([2]; 0.5 µM) [%] | cell viability ([2]; 1.5 µM) [%] | cell viability ([2]; 4.5 µM) [%] | cell viability ([2]; 13.5 µM) [%] | cell viability ([3]; 0.00617 µM) [%] | cell viability ([3]; 0.0185 µM) [%] | cell viability ([3]; 0.0556 µM) [%] | cell viability ([3]; 0.166667 µM) [%] | cell viability ([3]; 0.5 µM) [%] | cell viability ([3]; 1.5 µM) [%] | cell viability ([3]; 4.5 µM) [%] | cell viability ([3]; 13.5 µM) [%] | cell viability ([4]; 0.00617 µM) [%] | cell viability ([4]; 0.0185 µM) [%] | cell viability ([4]; 0.0556 µM) [%] | cell viability ([4]; 0.166667 µM) [%] | cell viability ([4]; 0.5 µM) [%] | cell viability ([4]; 1.5 µM) [%] | cell viability ([4]; 4.5 µM) [%] | cell viability ([4]; 13.5 µM) [%] |
| --- | --- | --- | --- | --- | --- | --- | --- | --- | --- | --- | --- | --- | --- | --- | --- | --- | --- | --- | --- | --- | --- | --- | --- | --- | --- | --- | --- | --- | --- | --- | --- | --- |
| CC#CC(=O)Nc1ccc2ncnc(Nc3cccc(Br)c3)c2c1 | 95.8 ± 5.2 | 105 ± 20 | 108 ± 30 | 76.6 ± 10 | 65.5 ± 12 | 38.7 ± 7 | 28.4 ± 4.2 | 18.3 ± 9.3 | 94 ± 1.7 | 95.5 ± 10 | 79.5 ± 27 | 63.3 ± 5.6 | 40.9 ± 1.1 | 21.1 ± 9.7 | 14.8 ± 1.1 | 12.3 ± 6.3 | 99.6 ± 5.3 | 85 ± 13 | 101 ± 18 | 84 ± 5.7 | 84.5 ± 1 | 44.6 ± 5.5 | 30.3 ± 8.2 | 33.4 ± 7.6 | 81.6 ± 19 | 98.5 ± 10 | 106 ± 20 | 73.9 ± 11 | 50.7 ± 1.8 | 22.7 ± 13 | 13.5 ± 5.1 | 4.04 ± 10 |
| COc1cc2ncnc(Nc3ccc(Cl)cc3F)c2cc1OC | 120 ± 13 | 89.3 ± 13 | 119 ± 19 | 97.1 ± 20 | 85.5 ± 8.9 | 66.1 ± 8.5 | 43.7 ± 8.6 | 47.2 ± 1.9 | 98.4 ± 38 | 95.7 ± 3.3 | 124 ± 36 | 110 ± 31 | 83.1 ± 28 | 44.3 ± 8.7 | 26.7 ± 7.2 | 36.9 ± 1.4 | 105 ± 20 | 86.8 ± 13 | 112 ± 22 | 116 ± 35 | 85.2 ± 24 | 59.5 ± 9.7 | 27.6 ± 4.8 | 28.3 ± 5 | 116 ± 7.2 | 99.5 ± 7.3 | 119 ± 36 | 97 ± 12 | 93.8 ± 12 | 75.3 ± 13 | 45 ± 6.2 | 35.2 ± 3.8 |
| COc1cc2ncnc(Nc3cccc(Br)c3)c2cc1OC.Cl | 127 ± 22 | 90.2 ± 19 | 118 ± 9.9 | 108 ± 7.1 | 89.1 ± 20 | 49 ± 2.4 | 39.8 ± 1.5 | 30.8 ± 7.7 | 126 ± 20 | 99 ± 21 | 112 ± 21 | 111 ± 19 | 63 ± 27 | 24.8 ± 4.3 | 22.8 ± 4.8 | 12.4 ± 4 | 115 ± 13 | 106 ± 32 | 106 ± 25 | 107 ± 11 | 77 ± 26 | 40.7 ± 2.4 | 32.9 ± 7.8 | 21.2 ± 5.5 | 126 ± 14 | 94 ± 30 | 105 ± 1.4 | 104 ± 9.2 | 91 ± 33 | 48.8 ± 3.7 | 28.6 ± 4.1 | 17.7 ± 5.7 |
